Data as given in ChEMBL document CHEMBL1134832, “Conformational analysis of tandospirone in aqueous solution: lead evolution of potent dopamine D4 receptor ligands” (Bioorg Med Chem Lett, 2001).

How the values were obtained:
D(4) dopamine receptor = target: T1, D(4) dopamine receptor (Homo sapiens, UniProt P21917); assay: Binding affinity to Dopamine receptor D4 was determined
T1 sequence (P21917 whole entry): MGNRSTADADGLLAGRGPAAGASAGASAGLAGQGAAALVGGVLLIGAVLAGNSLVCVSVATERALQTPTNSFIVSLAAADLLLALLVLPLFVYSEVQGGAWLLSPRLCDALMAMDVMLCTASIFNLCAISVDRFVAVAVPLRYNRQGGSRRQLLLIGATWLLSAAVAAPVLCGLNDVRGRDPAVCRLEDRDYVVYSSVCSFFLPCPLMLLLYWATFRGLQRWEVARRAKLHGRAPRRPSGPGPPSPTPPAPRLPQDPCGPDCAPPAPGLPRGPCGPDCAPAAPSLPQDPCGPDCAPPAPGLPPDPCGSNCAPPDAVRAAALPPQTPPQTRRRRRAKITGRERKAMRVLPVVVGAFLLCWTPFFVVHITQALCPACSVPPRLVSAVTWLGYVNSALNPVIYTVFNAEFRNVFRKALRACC

D(2) dopamine receptor = D(2) dopamine receptor (Homo sapiens, UniProt P14416); assay: Binding affinity to Dopamine receptor D2 was determined
[1] = target: T2, 5-hydroxytryptamine receptor 1A (Homo sapiens, UniProt P08908); assay: Binding affinity to 5-hydroxytryptamine 1A receptor was determined
T2 sequence (P08908 whole entry): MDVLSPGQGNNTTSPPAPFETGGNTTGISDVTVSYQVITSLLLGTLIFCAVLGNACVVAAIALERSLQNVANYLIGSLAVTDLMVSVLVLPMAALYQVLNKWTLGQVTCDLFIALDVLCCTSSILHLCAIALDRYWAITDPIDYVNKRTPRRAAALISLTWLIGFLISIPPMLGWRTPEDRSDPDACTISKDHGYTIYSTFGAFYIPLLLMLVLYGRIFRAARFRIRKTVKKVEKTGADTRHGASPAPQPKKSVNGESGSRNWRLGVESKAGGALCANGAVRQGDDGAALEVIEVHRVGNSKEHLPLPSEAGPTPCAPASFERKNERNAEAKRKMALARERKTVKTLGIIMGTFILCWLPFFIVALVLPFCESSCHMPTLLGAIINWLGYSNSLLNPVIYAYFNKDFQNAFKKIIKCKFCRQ

Sequence of D(2) dopamine receptor (P14416 whole entry): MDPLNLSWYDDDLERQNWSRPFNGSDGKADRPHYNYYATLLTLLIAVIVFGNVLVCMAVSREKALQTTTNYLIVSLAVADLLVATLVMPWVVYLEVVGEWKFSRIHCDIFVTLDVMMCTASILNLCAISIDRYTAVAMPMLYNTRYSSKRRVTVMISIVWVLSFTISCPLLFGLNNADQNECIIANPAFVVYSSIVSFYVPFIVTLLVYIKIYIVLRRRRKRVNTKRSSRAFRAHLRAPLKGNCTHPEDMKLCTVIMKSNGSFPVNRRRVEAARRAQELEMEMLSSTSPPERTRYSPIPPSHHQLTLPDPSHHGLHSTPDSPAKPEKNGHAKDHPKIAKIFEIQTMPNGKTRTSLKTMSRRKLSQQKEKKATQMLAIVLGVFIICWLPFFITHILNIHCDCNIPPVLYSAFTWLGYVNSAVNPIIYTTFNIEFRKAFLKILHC

Row | Compound | Ki (D(4) dopamine receptor) | Ki (D(2) dopamine receptor) | Ki [1]
1 | CNc1nc(Cl)c(Sc2ccccc2)c(N2CCN(C)CC2)n1 | 250 nM | 188 nM | 460 nM
2 | Cc1nc(Cl)c(Sc2ccc(Cl)cc2)c(NC2CCN(Cc3ccccc3)CC2)n1 | 2.3 nM | 62 nM | 160 nM
3 | Cc1nc(Cl)c(Sc2ccc(Cl)cc2)c(N2CCN(C)CC2)n1 | 260 nM | 62 nM | 1500 nM
4 | CNc1nc(Cl)c(SC)c(N2CCN(C)CC2)n1 [MEZILAMINE] | > 10000 nM | 5.4 nM | 430 nM
5 | O=C1[C@@H]2[C@H]3CC[C@H](C3)[C@@H]2C(=O)N1CCCCN1CCN(c2ncccn2)CC1 [TANDOSPIRONE] | 7.2 nM | 460 nM | 32 nM
6 | CN1CCN(c2nc3ccccc3c(Cl)c2Sc2ccccc2)CC1 | 92 nM | 31 nM | 2000 nM
